Data published in patent US20260242362A1, “PREPARATION OF 3,4,5-TRISUBSTITUTED TRIAZOLES AND METHODS OF USING THE SAME” (University of Florida Research Foundation, Incorporated, priority 2023, published 2026).

Assays:
[1] = mouse, microsomes
Experimental: Microsomal stability was determined using mouse hepatic microsomes and LC/MS detections over time (Zhou et al., 2013, 22).

kappa opioid receptor [2] = molecular target: T1, kappa opioid receptor (Homo sapiens, UniProt P41145); assay: PathHunter DiscoverX β-arrestin2 recruitment (enzyme fragment complementation) assay; type: cell-based; conditions: for EC50: 3 parameter nonlinear regression, nc = did not converge, read-out: β-arrestin2 EC50; for β-arrestin2 Emax (% U60): relative to U69,593 = 100% Emax, ~ did not plateau at 100%; for β-arrestin2 maximum stimulation observed at 10 μM (starred Emax cells / % max at 10 uM): * compounds that did not reach plateau
Target sequence in this assay (P41145 whole entry, the tested form may be a part): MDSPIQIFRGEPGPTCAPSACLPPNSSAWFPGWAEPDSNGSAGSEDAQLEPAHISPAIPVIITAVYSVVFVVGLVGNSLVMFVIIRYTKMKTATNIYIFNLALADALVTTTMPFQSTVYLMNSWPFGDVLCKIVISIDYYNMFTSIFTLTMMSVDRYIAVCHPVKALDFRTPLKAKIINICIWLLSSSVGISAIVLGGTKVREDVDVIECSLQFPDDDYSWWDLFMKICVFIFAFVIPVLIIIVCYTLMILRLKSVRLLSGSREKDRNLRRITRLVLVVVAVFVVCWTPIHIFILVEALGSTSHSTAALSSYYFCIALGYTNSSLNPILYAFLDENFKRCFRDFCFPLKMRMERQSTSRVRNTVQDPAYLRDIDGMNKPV
Target sequence in this assay (P32121 whole entry partner, the tested form may be a part): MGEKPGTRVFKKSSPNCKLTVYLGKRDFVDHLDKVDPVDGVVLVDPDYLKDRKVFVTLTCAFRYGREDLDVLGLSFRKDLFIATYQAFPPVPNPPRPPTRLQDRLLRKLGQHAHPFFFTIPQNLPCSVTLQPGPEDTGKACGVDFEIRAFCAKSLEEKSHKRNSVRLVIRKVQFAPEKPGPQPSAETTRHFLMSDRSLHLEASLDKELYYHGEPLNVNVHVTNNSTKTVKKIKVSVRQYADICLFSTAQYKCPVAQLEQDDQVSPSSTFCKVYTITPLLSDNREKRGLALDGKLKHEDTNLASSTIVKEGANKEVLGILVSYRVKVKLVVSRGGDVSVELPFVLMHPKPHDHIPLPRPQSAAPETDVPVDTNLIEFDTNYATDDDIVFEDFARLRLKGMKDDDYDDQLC

kappa opioid receptor [3] = molecular target: T1, kappa opioid receptor; assay: GTPγS binding assay (G-protein activation); type: biochemical; conditions: for EC50: 3 parameter nonlinear regression, nc = did not converge; for GTPγS Emax (% U60): relative to U69,593 = 100% Emax; for GTPγS maximum stimulation observed at 10 μM (starred Emax cells): * compounds that did not reach plateau
Target sequence in this assay (P41145 whole entry, the tested form may be a part): as the sequence (P41145 whole entry, the tested form may be a part) above

Row | Structure (SMILES) | Microsomal Stability [1] | EC50 (kappa opioid receptor [2]) [µM] | β-arrestin2 Emax (% U60) (kappa opioid receptor [2]) | β-arrestin2 maximum stimulation observed at 10 μM (starred Emax cells / % max at 10 uM) (kappa opioid receptor [2]) | EC50 (kappa opioid receptor [3]) [µM] | GTPγS Emax (% U60) (kappa opioid receptor [3]) | also measured
1 | Cc1ccc(CCc2nnc(-c3ncccn3)n2Cc2cccs2)cc1C(F)(F)F [Compound 17] | 0.8 min | 2.18 | 150 |  |  |  | 
2 | Cc1ccc(/C=C/c2nnc(-c3nccn3C)n2Cc2cccs2)cc1C(F)(F)F [52 (UNC9166)] | 12.2 min | 55.8 |  | 37.7 (% max at 10 uM) % U60 | 0.349 | 74.2 | 
3 | Cc1ccc(CCc2nnc(-c3ccccn3)n2-c2ccccc2)cc1C(F)(F)F |  |  |  |  |  |  | KOR potency / activity in words (SAR commentary) (kappa opioid receptor [3]): potency was completely lost
4 | Brc1ccc(CCc2nnc(-c3ccccn3)n2Cc2cccs2)cc1 [Compound 28] | 4.6 min | 0.963 | 106 |  |  | 96 | 
5 | c1ccc(-c2nnc(C3CCc4ccccc4C3)n2Cc2cccs2)nc1 (stereo not shown) [Compound 37] | 13.1 min |  |  |  |  |  | 
6 | Cc1ccc(CCc2nnc(-c3ccc4ccccc4c3)n2Cc2cccs2)cc1C(F)(F)F [Compound 21] | 1.3 min |  |  | 16* % U60 |  |  | 
7 | Cc1ccc(CCc2nnc(-c3ccccn3)n2Cc2ccccn2)cc1C(F)(F)F [Compound 10] | 1.0 min | 7.69 | 125 |  |  | 784 | 
8 | O=C(Cc1ccccc1)c1nnc(-c2ccccn2)n1Cc1ccco1 [Compound 42] | 8.1 min |  | 2 |  |  |  | metabolic stability in words [1]: increased metabolic stability; KOR potency / activity in words (SAR commentary) (kappa opioid receptor [3]): loss in potency; GTPγS maximum stimulation observed at 10 μM (starred Emax cells) (kappa opioid receptor [3]): 4* % U60
9 | Cc1ccc(CCc2nnc(-c3ccccn3)n2Cc2ccsc2)cc1C(F)(F)F [Compound 6] | 1.0 min | 0.813 |  |  | 0.012 |  | 
10 | Cc1ccc(/C=C/c2nnc(-c3ccccn3)n2Cc2nccs2)cc1C(F)(F)F [50 (UNC9078)] | 10.1 min |  |  | 51.6 (% max at 10 uM) % U60 | 0.767 | 81.6 | 
11 | Cc1ccc(/C=C/c2nnc(-c3nccn3C)n2Cc2ccco2)cc1C(F)(F)F [Compound 49] | 14.1 min |  |  | 17* % U60 |  | 76 | 
12 | Cc1cc(CCc2nnc(-c3ccccn3)n2Cc2cccs2)ccc1C(F)(F)F [Compound 39a] |  |  |  |  | 0.0031 |  | 
13 | Cc1ccc(CCCc2nnc(-c3ccccn3)n2Cc2ccco2)cc1C(F)(F)F [Compound 3] | 1.6 |  |  |  | 0.812 | 74 | 
14 | Cc1ccc(/C=C/c2nnc(-c3ccccn3)n2Cc2cccs2)cc1C(F)(F)F [Compound 47] | 22.0 min |  |  | 36* % U60 |  | 83 | KOR potency / activity in words (SAR commentary) (kappa opioid receptor [3]): completely inactive
15 | Cc1ccc(CCc2nnc(-c3ccccn3)n2CCc2ccccc2)cc1C(F)(F)F [Compound 13a] |  |  |  |  | 1.94 |  | 
16 | Cc1ccc(CCc2nnc(-c3ccccn3)n2CC2CCCO2)cc1C(F)(F)F (stereo not shown) [Compound 17a] |  | 5.43 |  |  | 0.104 |  | 
17 | Cc1ccc(CCc2nnc(-c3ccccn3)n2Cc2cccnc2)cc1C(F)(F)F [Compound 11] | 1.7 min | 0.479 | 105 |  | 0.07 | 90 | 
18 | Cc1ccc(CN(Cc2ccco2)C(=O)c2ccccn2)cc1C(F)(F)F [Compound 57] | 1.8 min | 3.13 | 87 |  | 0.368 | 92 | 
19 | Cc1ccc(CCc2nnc(-c3cccnc3)n2Cc2cccs2)cc1C(F)(F)F [Compound 15] | 1.0 min |  |  | 14* % U60 |  | 85 | 
20 | Cn1ccnc1-c1nnc(CCc2ccc(Cl)cc2)n1Cc1nccs1 [Compound 53] | 2.4 min | 5.02 | 81 |  | 2.25 | 94 | 
21 | COc1ccc(CCc2nnc(-c3ccccn3)n2Cc2cccs2)cc1 [Compound 25] | 5.6 min | > 10 | 124 |  |  |  | 

Row | Structure (SMILES) | Microsomal Stability [1] | EC50 (kappa opioid receptor [2]) [µM] | β-arrestin2 Emax (% U60) (kappa opioid receptor [2]) | β-arrestin2 maximum stimulation observed at 10 μM (starred Emax cells / % max at 10 uM) (kappa opioid receptor [2]) | EC50 (kappa opioid receptor [3]) [µM] | GTPγS Emax (% U60) (kappa opioid receptor [3]) | also measured
22 | OC(Cc1nnc(-c2ccccn2)n1Cc1ccco1)c1ccccc1 (stereo not shown) [Compound 45] | 20.7 min |  |  |  |  |  | 
23 | Cc1ccc(CCN(CCc2ccco2)C(=O)c2ccccn2)cc1C(F)(F)F [Compound 61] | 0.9 min | > 10 |  | 41* % U60 | 1.54 | 78 | 
24 | Cc1ccc(CCCN(CCCc2ccco2)C(=O)c2ccccn2)cc1C(F)(F)F [Compound 64] | 1.0 min | > 10 |  | 26* % U60 | 3.06 | 88 | 
25 | Cc1ccc(CCc2nnc(-c3ccccn3)n2-c2ccc3ccccc3c2)cc1C(F)(F)F [Compound 12a] |  |  |  |  | 10.3 |  | 
26 | Cc1ccc(CCc2nnc(-c3ccccn3)n2Cc2ccncc2)cc1C(F)(F)F [Compound 12] | 0.9 min |  |  | 12* % U60 |  |  | GTPγS maximum stimulation observed at 10 μM (starred Emax cells) (kappa opioid receptor [3]): 48* % U60
27 | Cc1ccc(CCc2nnc(-c3ccccc3)n2Cc2cccs2)cc1C(F)(F)F [Compound 14] | 1.8 min | > 10 | ~100 |  |  |  | 
28 | FC(Cc1ccccc1)c1nnc(-c2ccccn2)n1Cc1ccco1 (stereo not shown) [Compound 43] | 9.1 min | > 10 |  | 7* % U60 | 3.83 |  | 
29 | c1ccc(-c2nnc(CCc3ccc4ccccc4c3)n2Cc2cccs2)nc1 [Compound 36] | 2.4 min |  |  |  |  |  | 
30 | Cc1ccc(CCc2nnc(-c3ccccn3)n2CC2CC2)cc1C(F)(F)F [Compound 13] | 0.9 min |  |  |  |  |  | 
31 | Cc1ccc(CCc2nnc(-c3ccccn3)n2Cc2ccccc2)cc1C(F)(F)F [Compound 8] | 0.9 min | 6.34 | 180 |  |  |  | 
32 | FC(F)(Cc1ccccc1)c1nnc(-c2ccccn2)n1Cc1ccco1 [Compound 44] |  |  |  |  |  |  | KOR potency / activity in words (SAR commentary) (kappa opioid receptor [3]): completely inactive
33 | Cc1ccc(CCc2nnc(-c3ncccc3C)n2Cc2cccs2)cc1C(F)(F)F [Compound 19] | 1.1 min | 1.55 | 117 |  |  |  | 
34 | Cc1ccc(/C=C/c2nnc(-c3nccn3C)n2Cc2ccco2)cc1C(F)(F)F [51 (UNC9012)] |  |  |  | 17.3 (% max at 10 uM) % U60 |  | 76.1 | 
35 | Cc1ccc(CCc2nnc(-c3ccccn3)n2-c2cccc3ccccc23)cc1C(F)(F)F [Compound 11a] |  |  |  |  | 2.65 |  | 
36 | Cc1ccc(CCc2nnc(-c3ccncn3)n2Cc2cccs2)cc1C(F)(F)F [Compound 18] | 1.1 min | > 10 |  | 66* % U60 |  |  | 
37 | Cc1ccc(CCc2nnc(-c3ccccn3)n2Cc2ncco2)cc1C(F)(F)F [Compound 5a] |  | 0.532 |  |  | 0.038 |  | 
38 | c1ccc(-c2nnc(CCc3cccc4ccccc34)n2Cc2cccs2)nc1 [Compound 35] | 1 min | > 10 | 67 |  |  |  | 
39 | FC(F)(F)c1ccccc1CCc1nnc(-c2ccccn2)n1Cc1cccs1 [Compound 31] | 3.0 min | > 10 | 44 |  |  |  | 
40 | Cc1ccc(CCc2nnc(-c3ccc4ccccc4n3)n2Cc2cccs2)cc1C(F)(F)F [Compound 22] | 2.2 min | > 10 | ~100 |  |  |  | 
41 | Cc1ccc(CCc2nnc(-c3cccc4ccccc34)n2Cc2cccs2)cc1C(F)(F)F [Compound 20] | 0.9 min | > 10 |  | 76* % U60 |  |  | 
